From the OligoGym collection come the findings set out here.

The series concerns the target IRF4. Particulars: ASO.

“And” between values parts separate entries of the source, which are not always exact repeats. Equal entries are not always repeated. After the bases stand the sugars from the 5' end (letter, count) and the backbone: PS all phosphorothioate, else s phosphorothioate and o phosphodiester by linkage. Methylation of C is not given here. e = 2'-O-(2-methoxyethyl) (MOE); k = constrained ethyl (cEt); d = 2'-deoxy (DNA)

For TTGAAATAAGCTCATC (sugars k3 d10 k3, PS), the target mRNA inhibition (SK-MEL-28, 4 µM) was found to be 33%.
On the same count and under the same terms, the same measure for GGTAAGATCTCCATGG (sugars k3 d10 k3, PS): 45%; for AAACTATAATTGGCAC (sugars k3 d10 k3, PS): 30%.
Take ATGTGTTCTGGTAAAT (sugars k3 d10 k3, PS): the target mRNA inhibition (MM.1R, 1 µM) is 34%.
For the sequence TCCAGAAAATTCAGCT (sugars k3 d10 k3, PS), the target mRNA inhibition (SK-MEL-28, 4 µM) was 48%.
Same read-out and setting: the figure for GGCTCCCTCAGGAACA (sugars k3 d10 k3, PS) is 19%; for ACTTACAGGACTATTT (sugars k3 d10 k3, PS) it is 16%.
On the same count and under the same terms, the same measure for GTAAACTGAAAGACCC (sugars k3 d10 k3, PS): 35%.
As to CTTCCCTGAGAAATGG (sugars k3 d10 k3, PS), the target mRNA inhibition is 6% (MM.1R, 0.074 µM); 2% (MM.1R, 0.222 µM); 1% (MM.1R, 0.666 µM); 4% (MM.1R, 2 µM); 16% (SK-MEL-28, 0.185 µM); 50% (SK-MEL-28, 4 µM). Moreover, the target mRNA inhibition was 60% (SK-MEL-28, 5 µM) and 85% (SK-MEL-28, 15 µM).
Regarding GGCCCTGTCAAACTAT (sugars k3 d10 k3, PS), the target mRNA inhibition (SK-MEL-28, 4 µM) is 40%.
The same measure, in the same setting: the figure for ATACTTAAGCAAGTGG (sugars k3 d10 k3, PS) is 76%; for AGGCACCTTCGCGGCC (sugars k3 d10 k3, PS) it is 18%; for AGAAGCACTGGCATCG (sugars k3 d10 k3, PS) it is 37%.
For “CAAGTGTCTAAAGTCC (sugars k2 d9 e3 k2, PS)”, the target mRNA inhibition (MM.1R, 1 µM) was 22% and 31%.
With GCTAAAGAACACTGCT (sugars k3 d10 k3, PS), for the setting “SK-MEL-28, 4 µM”, the target mRNA inhibition turned out to be 3%.
On the same count and under the same terms, the same measure for GCTGTTTATTTCCTAC (sugars k3 d10 k3, PS): 66%.
In the case of “AGCAGTGATGTCAGGT (sugars kkdddddddddkdkdk, PS)”, the target mRNA inhibition (MM.1R, 1 µM) was 55% and 48%.
Regarding CACCACCTCGAGGCCA (sugars k3 d10 k3, PS), the target mRNA inhibition (SK-MEL-28, 4 µM) stood at 24%.
On to ATACATTGAGGCATAC (sugars k3 d10 k3, PS), for which the target mRNA inhibition (MM.1R, 1 µM) amounted to 2%.
Same read-out and setting: the figure for “TTGATGTGATAGCTGA (sugars kkdddddddddekeke, PS)” is 28%.
For the sequence ACGCACCATTCAGACA (sugars k3 d10 k3, PS), under “SK-MEL-28, 4 µM”, the target mRNA inhibition is -2%.
For the sequence GGGATTCCGCGCGCAG (sugars k3 d10 k3, PS), the target mRNA inhibition (SK-MEL-28, 4 µM) came out at 14%.
Same read-out and setting: the figure for GGGCAACTTTAACCAT (sugars k3 d10 k3, PS) is 8%; for CTAAAGGAGTGCAGGA (sugars k3 d10 k3, PS) it is 6%.
As for “AGTGACTTGCATCCAT (sugars kkdddddddddekeke, PS)”, the target mRNA inhibition (MM.1R, 1 µM) came out at 34%.
In the case of GATAGGTATACTTAAG (sugars k3 d10 k3, PS), the target mRNA inhibition (SK-MEL-28, 4 µM) was found to be 51%.
TAGTGTTCCAGGAGAT (sugars k3 d10 k3, PS): the target mRNA inhibition worked out at 15% (MM.1R, 0.074 µM); 29% (MM.1R, 0.222 µM); 52% (MM.1R, 0.666 µM); 53% (MM.1R, 1 µM); 80% (MM.1R, 2 µM).
On to TGCTTTGCAGCATTGG (sugars k3 d10 k3, PS), for which the target mRNA inhibition (MM.1R, 1 µM) was determined as 30%.
The same measure, in the same setting: the figure for “ACTTTTAGAGAGGAGA (sugars kkkdddddddddkeke, PS)” is 41%.
On to “TGGGATTATATACTGG (sugars kddddddddddkekek, PS)”, for which the target mRNA inhibition (MM.1R, 1 µM) is 43%.
Take GTGTAATGTAGGGATA (sugars k3 d10 k3, PS): the target mRNA inhibition (SK-MEL-28, 4 µM) was 64%.
Still for that read-out and setting: the figure for CAATGATGGCAGTCTA (sugars k3 d10 k3, PS) is 40%; for TTGCCTTCGCTCACTC (sugars k3 d10 k3, PS) it is 22%; for GCTCATGTTTTTTGAC (sugars k3 d10 k3, PS) it is 56%.
